For data set [1] the following is noted: stated as known property of the chemical; cited from earlier work.
The subject of data set [2] is skin tissues (Episkin / Mutz3-LC co-culture). Nature of the data set: cytokine measurements (27 cytokines) of skin tissues exposed to known sensitizing chemicals, analysed by PCA. The format is cell-based, human. The settings on record: several chemical concentrations, multiple replicates, comparison IE vs SA. The protocol: We have taken cytokine measurements of skin tissues that were exposed to known sensitizing chemicals. […] Principal component analysis (PCA) was used to reduce the high dimensional data into a lower dimension so that the differences in response from each chemical could be visualized.
Multiple cytokines and growth factors were assessed using the Biorad Bioplex Analyzer. 1 ml supernatants were collected for undifferentiated Mutz3 cells, Day 7 differentiated cells [Mutz3-LC] and Day 9 mature cells [mMutz3-LC]. The supernatants were tested for 27 cytokines with respective standards to detect cytokine secretion levels. Basal media samples were utilized as controls and supplementation with growth factors and cytokines viz. GMCSF, TGF-beta1, TNF-alpha, IL-6, IL1β were taken into account in the calculations. Cytokine secretion levels [pg/ml] were converted to [pg/million cells/day] by normalizing with the cell number for each cell stage of differentiation.
Different doses of SA (Salicylic Acid), IE (Isoeugenol), PPD (Paraphenylenediamine) and DNCB (DiNitroChlorobenzene) were topically applied onto a 1 cm^2 nylon disc to Episkin™ in 12 well inserts. The lower chamber consisted of Mutz3-LCs at a density of 250,000 cells/ml. Forty eight (48) hrs post sensitization, cells were resuspended in 1 ml fresh maturation media, supernatants were collected for subsequent analysis and cell count was performed. […]

With `O=C(O)c1ccccc1O`, the skin sensitizer class entry in data set [1] is given as “non-sensitizing irritant”. In addition, the “cytokine profile induced in skin tissues (PCA, FIG. 11)” value in data set [2] is reported as “do not induce distinct cytokine profiles”.
Turning to `CC=Cc1ccc(O)c(OC)c1` [isoeugenol], the skin sensitizer class entry in data set [1] is “strong sensitizer”. The “cytokine profile induced in skin tissues (PCA, FIG. 11)” value in data set [2] is “do not induce distinct cytokine profiles”.

These data come from patent US20140213466A1, “HIGH-THROUGHPUT ASSESSMENT METHOD FOR CONTACT HYPERSENSITIVITY” (Rutgers, The State University of New Jersey, priority 2010, published 2014).
